This series is described as follows: wn = mass fraction of the nth substance listed. The following applies: 298.2 K, Pendant drop shape.

Each structure is given as a SMILES string. ± gives the expanded uncertainty stated by the source.

In the case of `CCCC[N+](CCCC)(CCCC)CCCC.[Br-]` [tetrabutylammonium bromide] + O, the surface tension liquid-gas is recorded as 53.82 ± 1.4 mN/m (w1 = 0.0697); 50.58 ± 1.3 mN/m (w1 = 0.1); 49.72 ± 1.2 mN/m (w1 = 0.14); 46.19 ± 1.1 mN/m (w1 = 0.3); 44.48 ± 1.2 mN/m (w1 = 0.4).
